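Grown in 96-well plates, cells were treated for 48 hours with each compound at five concentrations. Insufficient inhibition: endpoint recorded as highest concentration tested. GI50 is the concentration that inhibits growth by half. TGI denotes the concentration required for complete inhibition of growth.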
What was measured:
Assay in all cases: inhibition of tumour cell growth, NCI panel, 48 h
[1] = tested on: MCF7 breast
[2] = tested on: PC-3 prostate
[3] = tested on: DU-145 prostate
[4] = tested on: MDA-MB-231 breast
[5] = tested on: NCI/ADR-RES ovarian
[6] = tested on: M19-MEL melanoma
[7] = tested on: LXFL 529 NSCLC
[8] = tested on: HOP-18 NSCLC
[9] = tested on: SNB-78 CNS

For `NCCOCCOCCNc1nc(Cc2ccccc2)nc(NCCCN2CCCC2=O)n1`, the GI50 [1] was over 100 µM, the TGI [1] was over 100 µM and the GI50 [2] was over 100 µM. For the same compound, the TGI [2] was over 100 µM, the GI50 [3] was over 100 µM and the TGI [3] was over 100 µM. The GI50 [4] was over 100 µM, the TGI [4] was over 100 µM and the GI50 [5] was over 100 µM. For the same compound, the TGI [5] was over 100 µM.
With `CCCCCCCCCCC(C(=O)O)C1(C(=O)O)CCC(=O)O1` (centres undefined) the TGI [1] was over 100 µM, the TGI [2] was over 100 µM and the TGI [3] was over 100 µM. The TGI [4] was over 100 µM and the TGI [5] was over 100 µM.
`CN(C)CCCNC(CC#N)CCC#N` (centres undefined) gave a TGI [1] of over 10 µM, a TGI [2] of over 10 µM and a TGI [3] of over 10 µM. For the same compound, the TGI [4] was over 10 µM and the TGI [5] was over 10 µM.
`Cn1cccc1-c1cc(-c2cccs2)nc(N)c1C#N` gave a GI50 [1] of over 100 µM, a TGI [1] of over 100 µM and a GI50 [2] of over 100 µM. The TGI [2] was over 100 µM, the GI50 [3] was over 100 µM and the TGI [3] was over 100 µM. The GI50 [4] was over 100 µM, the TGI [4] was over 100 µM and the GI50 [5] was over 100 µM. It also gave a TGI [5] of over 100 µM.
Work on `O=C(O)/C=C\C(=O)N1C/C(=C\c2ccccc2Cl)C(=O)/C(=C/c2ccccc2Cl)C1` yielded a GI50 [1] of 1.09 µM, a TGI [1] of 10.4 µM and a GI50 [2] of 3.56 µM. For the same compound, the TGI [2] was 15.5 µM, the GI50 [3] was 2.43 µM and the TGI [3] was 5.48 µM. The GI50 [4] was 3.52 µM, the TGI [4] was 11.5 µM and the GI50 [5] was 4.08 µM. It also gave a TGI [5] of 22.5 µM.
Compound `NCCn1c(=O)[nH]c(=O)[nH]c1=S` has a GI50 [1] of 61.1 µM, a TGI [1] of over 100 µM and a GI50 [2] of over 100 µM. For the same compound, the TGI [2] was over 100 µM, the GI50 [3] was over 100 µM and the TGI [3] was over 100 µM. The GI50 [4] was over 100 µM, the TGI [4] was over 100 µM and the GI50 [5] was over 100 µM. The TGI [5] was over 100 µM.
With `NC1C[C@H](n2cc(/C=C/Br)c(=O)[nH]c2=O)C[C@@H]1CO` (some centres undefined) the TGI [6] was over 100 µM, the TGI [7] was over 100 µM and the TGI [8] was over 100 µM.
Work on `O=c1cc(-c2ccccc2)[nH]c2ccccc12` yielded a GI50 [1] of 0.383 µM, a TGI [1] of over 100 µM and a GI50 [2] of 0.403 µM. The TGI [2] was over 100 µM, the GI50 [3] was 0.829 µM and the TGI [3] was over 71.4 µM. For the same compound, the GI50 [4] was 4.09 µM, the TGI [4] was over 62.1 µM and the GI50 [5] was 0.483 µM.
Work on `COc1cc(OC(C)=O)cc2c(OC(C)=O)ccc(OC(C)=O)c12` yielded a TGI [9] of over 100 µM and a TGI [7] of over 100 µM.
`COc1ccc2c(c1)cn1c3ccc(O)cc3nc(N)c21` gave a GI50 [1] of 0.615 µM, a TGI [1] of 4.99 µM and a GI50 [2] of 0.761 µM. For the same compound, the TGI [2] was 13.4 µM, the GI50 [3] was 0.24 µM and the TGI [3] was 5.43 µM. The GI50 [4] was 0.957 µM, the TGI [4] was 5.56 µM and the GI50 [5] was 0.2 µM. It also gave a TGI [5] of 3.33 µM.
`COC(C(=O)[O][Ge]([CH3])([CH3])[CH3])c1ccccc1` (centres undefined) showed a GI50 [6] of over 100 µM, a TGI [6] of over 100 µM and a GI50 [9] of over 100 µM. It also gave a TGI [9] of over 100 µM, a GI50 [7] of over 100 µM and a TGI [7] of over 100 µM.
In the case of `Cc1cc(N(CCCl)CCCl)ccc1C=Nc1ccc(-c2csc(Cc3ccccc3)n2)cc1`, the GI50 [1] is reported as 4.66 µM, the TGI [1] is reported as 43.3 µM and the GI50 [2] is reported as 5.66 µM. For the same compound, the TGI [2] was 44.2 µM, the GI50 [3] was 7.98 µM and the TGI [3] was 62.3 µM. For the same compound, the GI50 [4] was 12.3 µM, the TGI [4] was 49.5 µM and the GI50 [5] was 5.18 µM. The TGI [5] was 34 µM.
Work on `COc1ccc(-c2ccc(/C=N/n3c(COc4ccc(Cl)cc4Cl)nn(CN4CCOCC4)c3=S)o2)c([N+](=O)[O-])c1` yielded a GI50 [1] of 20.7 µM, a TGI [1] of 77.3 µM and a GI50 [2] of 18.6 µM. The TGI [2] was 50.6 µM, the GI50 [3] was over 100 µM and the TGI [3] was over 100 µM. It also gave a GI50 [5] of 21.1 µM and a TGI [5] of 58.7 µM.
For `COc1ccc(/C=C2\CCCC3=C2N=C2SC(C)=NN2C3c2ccc(OC)c(OC)c2)cc1OC` (centres undefined), the GI50 [1] was 3.04 µM, the TGI [1] was over 100 µM and the GI50 [2] was 25.8 µM. For the same compound, the TGI [2] was over 100 µM, the GI50 [3] was 10.7 µM and the TGI [3] was over 100 µM. The GI50 [4] was 25.1 µM, the TGI [4] was over 100 µM and the GI50 [5] was 4.71 µM. The TGI [5] was over 100 µM.
`COc1ccc2sc3c(NCCCN(C)C)nc4ccccc4c3c(=O)c2c1` gave a GI50 [1] of 1.74 µM, a TGI [1] of 3.4 µM and a GI50 [2] of 1.62 µM. The TGI [2] was 3.22 µM, the GI50 [3] was 1.66 µM and the TGI [3] was 3.07 µM. It also gave a GI50 [4] of 1.38 µM, a TGI [4] of 2.8 µM and a GI50 [5] of 1.64 µM. For the same compound, the TGI [5] was 3.28 µM.
Compound `CCCC(C)c1cc(Cc2cc(Cl)cc(Cl)c2O)c(O)c(Cc2cc(Cl)cc(Cl)c2O)c1` (centres undefined) has a GI50 [1] of 0.798 µM, a TGI [1] of 10.2 µM and a GI50 [2] of 0.43 µM. It also gave a TGI [2] of 4.52 µM, a GI50 [3] of 3.89 µM and a TGI [3] of 15.5 µM. For the same compound, the GI50 [4] was 1.24 µM, the TGI [4] was 4.19 µM and the GI50 [5] was 1.66 µM. For the same compound, the TGI [5] was 11.2 µM.
Work on `CC1(C)CC(=O)c2c(C(F)(F)F)nn(-c3ccc(C(N)=O)c(NC4CCC(OC(=O)CN)CC4)c3)c2C1` (centres undefined) yielded a GI50 [1] of under 0.0183 µM, a TGI [1] of over 100 µM and a GI50 [2] of 0.0688 µM. The TGI [2] was over 100 µM, the GI50 [3] was 0.0883 µM and the TGI [3] was over 100 µM. For the same compound, the GI50 [4] was 0.112 µM, the TGI [4] was 31.5 µM and the GI50 [5] was 12.5 µM. It also gave a TGI [5] of over 100 µM.
Work on `CC#C[C@]1(O)CC[C@H]2[C@@H]3CCC4=CC(=O)CCC4=C3[C@@H](c3ccc4c(c3)OCO4)C[C@@]21C` yielded a GI50 [1] of 77.2 µM, a TGI [1] of over 1000 µM and a GI50 [2] of 39.7 µM. For the same compound, the TGI [2] was 340 µM, the GI50 [3] was 138 µM and the TGI [3] was 391 µM. For the same compound, the GI50 [4] was 90.1 µM, the TGI [4] was 327 µM and the GI50 [5] was 92.4 µM. It also gave a TGI [5] of over 1000 µM.
For `COc1ccc(OC)c(/C=C2\SC(=S)NC2=O)c1`, the GI50 [1] was 23.5 µM, the TGI [1] was over 100 µM and the GI50 [2] was 35 µM. It also gave a TGI [2] of over 100 µM, a GI50 [3] of 20 µM and a TGI [3] of 74.3 µM. It also gave a GI50 [4] of 14.2 µM, a TGI [4] of 43.2 µM and a GI50 [5] of 25.4 µM. It also gave a TGI [5] of 87.5 µM.
`CN(C)CCNc1c2c(c(NCCN(C)C)c3[nH]ccc13)C(=O)c1ccccc1C2=O` showed a GI50 [1] of 0.371 µM, a GI50 [2] of 0.609 µM and a TGI [2] of 11.1 µM. It also gave a GI50 [3] of 0.587 µM, a TGI [3] of 3.1 µM and a GI50 [5] of 0.887 µM.
`CC1OC(O[C@@H]2OC=C(C=O)[C@@]3(O)CC[C@H](C)[C@@H]23)C(O)C(O)C1O` (some centres undefined) showed a TGI [1] of over 100 µM, a TGI [2] of over 100 µM and a TGI [3] of over 100 µM. The TGI [4] was over 100 µM and the TGI [5] was over 100 µM.
Compound `N#Cc1c(N2CCCC2)[nH]c(=O)c(C(c2c(Cl)cccc2Cl)c2c(O)c(C#N)c(N3CCCC3)[nH]c2=O)c1O` has a GI50 [1] of 14.2 µM, a TGI [1] of 49.8 µM and a GI50 [2] of 14.5 µM. It also gave a TGI [2] of 28.3 µM, a GI50 [3] of 5.57 µM and a TGI [3] of 18.4 µM. It also gave a GI50 [5] of 15.4 µM and a TGI [5] of 33.8 µM.
Compound `COc1cc(/C=C/c2cc(O)c3cc(C(C)=O)c(=O)oc3c2)cc2c1O[C@]1(C)CC[C@@H](O)C(C)(C)[C@H]1C2` has a TGI [1] of over 39.3 µM, a TGI [2] of over 36 µM and a GI50 [3] of over 27.8 µM. For the same compound, the TGI [3] was over 45.6 µM, the GI50 [4] was over 26.7 µM and the TGI [4] was over 92.3 µM. For the same compound, the GI50 [5] was over 36.4 µM and the TGI [5] was over 88.9 µM.
Compound `COc1ccc(-c2n/c(=C\c3c(O)[nH]c4ccc(OC)cc34)cc3c2=Nc2ccccc2-3)cc1` has a GI50 [2] of 22.1 µM, a TGI [2] of over 100 µM and a GI50 [4] of 1.73 µM. For the same compound, the TGI [4] was 4.27 µM.
